Assay results as given in ChEMBL document CHEMBL2057066, “Heteroaromatic Moieties in the Sphingosine Backbone of α-Galactosylceramides for Noncovalent Interactions with CD1d” (ACS Med Chem Lett, 2012).
The source made the active and inactive calls. The rule behind the calls is not given here.

Experiments:
iNKT [1] = test: Immunomodulatory activity in mouse hepatic mononuclear cells containing iNKT cells assessed as IFNgamma release at 25 nM after 72 hrs by ELISA; type: functional, cell-based
iNKT [2] = test: Immunomodulatory activity in mouse hepatic mononuclear cells containing iNKT cells assessed as IL4 release at 25 nM after 72 hrs by ELISA; type: functional, cell-based
iNKT [3] = test: Immunomodulatory activity in mouse hepatic mononuclear cells containing iNKT cells assessed as IL4 release after 72 hrs by ELISA; type: functional, cell-based
Mus musculus = test: Immunomodulatory activity in C57BL/6 mouse serum assessed as IL4 release at 2 ug/ml, iv after 2 to 16 hrs by ELISa; type: functional, organism-based
iNKT [4] = test: Immunomodulatory activity in mouse hepatic mononuclear cells containing iNKT cells assessed as IFNgamma release after 72 hrs by ELISA; type: functional, cell-based

Structure (SMILES)	Activity (iNKT [1])	Activity (iNKT [2])	Activity (iNKT [3])	Activity (Mus musculus)	Activity (iNKT [4])
CCCCCCCCCCCCCCCCCCCCCCCCCC(=O)N[C@@H](CO[C@H]1O[C@H](CO)[C@H](O)[C@H](O)[C@H]1O)[C@H](O)[C@H](O)CCCCCCCCCCCCCC	Active	Active	–	–	–
CCCCCCCCCCCCCCCCCCCCCCCCCC(=O)N[C@@H](CO[C@H]1O[C@H](CO)[C@H](O)[C@H](O)[C@H]1O)[C@H](O)[C@H](O)c1cnn(Cc2ccc(CCCCCC)cc2)c1	–	–	Dose-dependent effect	Active	Dose-dependent effect
